Laboratory results reported in patent publication EP1633390B1, “STABILIZED PHARMACEUTICAL GLP-1 PEPTIDE COMPOSITIONS” (NOVO NORDISK A/S, priority 2003, dated 2012).

Experiment: Thioflavin T-test (ThT-test) of physical stability / fibril formation of the formulations
Format: physicochemical
Method: Physical stability of the formulations is evaluated by means of the Thioflavin T-test. The physical stability of the different formulations is characterized by their tendency to form fibrils. A method to determine the presence of fibrils is the Thioflavin T-test. The histological thiazole dye Thioflavin T (ThT) is used as an indicator of amyloid fibril formation. The method is based on the fluorescent characteristics of ThT. […] The physical stability of the formulations is evaluated by the ThT-test after storage of the formulation is top filled glass cartridges for various time periods.

Structure (SMILES): CCCCCCCCCCCCCCCC(=O)N[C@@H](CCC(=O)NCCCC[C@H](NC(=O)[C@H](C)NC(=O)[C@H](C)NC(=O)[C@H](CCC(N)=O)NC(=O)CNC(=O)[C@H](CCC(=O)O)NC(=O)[C@H](CC(C)C)NC(=O)[C@H](Cc1ccc(O)cc1)NC(=O)[C@H](CO)NC(=O)[C@H](CO)NC(=O)[C@@H](NC(=O)[C@H](CC(=O)O)NC(=O)[C@H](CO)NC(=O)[C@@H](NC(=O)[C@H](Cc1ccccc1)NC(=O)[C@@H](NC(=O)CNC(=O)[C@H](CCC(=O)O)NC(=O)[C@H](C)NC(=O)[C@@H](N)Cc1cnc[nH]1)[C@@H](C)O)[C@@H](C)O)C(C)C)C(=O)N[C@@H](CCC(=O)O)C(=O)N[C@@H](Cc1ccccc1)C(=O)N[C@H](C(=O)N[C@@H](C)C(=O)N[C@@H](Cc1c[nH]c2ccccc12)C(=O)N[C@@H](CC(C)C)C(=O)N[C@H](C(=O)N[C@@H](CCCNC(=N)N)C(=O)NCC(=O)N[C@@H](CCCNC(=N)N)C(=O)NCC(=O)O)C(C)C)[C@@H](C)CC)C(=O)O [Compound 1, Arg^34, Lys^26 (N^∈-(γ-Glu(N^α-hexadecanoyl)))-GLP-1 (7-37)]
- physical stability (change in ThT) (Compound 1 adjusted to pH 8.0 before freeze drying, after 1 week and 1 months storage at 37°C): an increase in ThT is seen
- physical stability (change in ThT) (Compound 1 adjusted to pH 9.5 and 11.5 before freeze drying, after 1 week and 1 months storage at 37°C): no increase in ThT is seen
- physical stability (change in ThT) (formulation manufactured by raising pH above neutral pH (> 8) in the solution containing the drug substance, after 1 month at 37°C): no increase in ThT is seen
